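Compound exposure: 48 hours, 5 concentrations, 96-well plates. GI50 = concentration required for 50% inhibition of growth.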 Active and inactive are the calls of the source. No stated cut-off is given here; in the data, active = GI50 up to about 1.1 µM and inactive = higher.
Key:
Experiment in all cases: growth of human tumour cells (NCI), 48 h
[1] = tested on: 786-0
[2] = tested on: CCRF-CEM
[3] = tested on: HL-60
[4] = tested on: HT-29
[5] = tested on: Hs-578T
[6] = tested on: MCF7
[7] = tested on: MDA-N
[8] = tested on: Malme-3M
[9] = tested on: NCI-H460
[10] = tested on: NCI-H522
[11] = tested on: OVCAR-4
[12] = tested on: OVCAR-8
[13] = tested on: PC-3
[14] = tested on: SK-MEL-28
[15] = tested on: SK-MEL-5
[16] = tested on: SN12C
[17] = tested on: SNB-19
[18] = tested on: U-251
[19] = tested on: UACC-62
[20] = tested on: SK-OV-3

Compound | GI50 [1] | GI50 [2] | GI50 [3] | GI50 [4] | GI50 [5] | GI50 [6] | GI50 [7] | GI50 [8] | GI50 [9] | GI50 [10] | GI50 [11] | GI50 [12] | GI50 [13] | GI50 [14] | GI50 [15] | GI50 [16] | GI50 [17] | GI50 [18] | GI50 [19] | GI50 [20]
CC1CCCC(CC(=O)O)(CC(=O)O)C1 (centres undefined) | > 100 µM (inactive) | > 100 µM (inactive) | > 100 µM (inactive) | > 100 µM (inactive) | > 100 µM (inactive) | > 100 µM (inactive) | > 100 µM (inactive) | > 100 µM (inactive) | > 100 µM (inactive) | > 100 µM (inactive) | > 100 µM (inactive) | > 100 µM (inactive) | > 100 µM (inactive) | 7.55 µM (inactive) | > 100 µM (inactive) | > 100 µM (inactive) | > 100 µM (inactive) | > 100 µM (inactive) | > 100 µM (inactive) | –
CN1CC[C@]2(c3cccc(O)c3)CC(=O)/C(=C/c3ccccc3)[C@@H]1C2.[O-][Cl+3]([O-])([O-])O | 2.44 µM (inactive) | 2.13 µM (inactive) | 1.8 µM (inactive) | 2.62 µM (inactive) | 4.62 µM (inactive) | 2.19 µM (inactive) | 1.58 µM (inactive) | 2.64 µM (inactive) | 2.17 µM (inactive) | 2.74 µM (inactive) | 3.37 µM (inactive) | 3.03 µM (inactive) | 1.76 µM (inactive) | 3.06 µM (inactive) | 3.12 µM (inactive) | 2.99 µM (inactive) | 5.4 µM (inactive) | 2.54 µM (inactive) | – | –
CC1CCc2sc3nc(S)n(-c4ccccc4)c(=O)c3c2C1 (centres undefined) | 62.7 µM (inactive) | – | – | 39.6 µM (inactive) | 61.1 µM (inactive) | 39 µM (inactive) | > 100 µM (inactive) | 66.8 µM (inactive) | 34.4 µM (inactive) | > 100 µM (inactive) | 39.7 µM (inactive) | > 100 µM (inactive) | 33.3 µM (inactive) | 93.1 µM (inactive) | 44.1 µM (inactive) | > 100 µM (inactive) | 45.5 µM (inactive) | 49.2 µM (inactive) | 31.3 µM (inactive) | 55.1 µM (inactive)
CC(C)OC1OC(CO)C(O)CC1n1cc(F)c(=O)[nH]c1=O (centres undefined) | > 100 µM (inactive) | – | – | > 100 µM (inactive) | 86.3 µM (inactive) | 46 µM (inactive) | > 100 µM (inactive) | 86.1 µM (inactive) | > 100 µM (inactive) | 16.2 µM (inactive) | > 100 µM (inactive) | > 100 µM (inactive) | > 100 µM (inactive) | > 100 µM (inactive) | > 100 µM (inactive) | > 100 µM (inactive) | > 100 µM (inactive) | 66.8 µM (inactive) | > 100 µM (inactive) | –
O=S1(=O)c2ccccc2N2CCCc3cc(Cl)cc1c32 | 40.4 µM (inactive) | > 100 µM (inactive) | > 100 µM (inactive) | > 100 µM (inactive) | 27.4 µM (inactive) | > 100 µM (inactive) | > 100 µM (inactive) | 70.6 µM (inactive) | > 100 µM (inactive) | – | 46.2 µM (inactive) | > 100 µM (inactive) | > 100 µM (inactive) | > 100 µM (inactive) | > 100 µM (inactive) | > 100 µM (inactive) | 56.6 µM (inactive) | – | 60.1 µM (inactive) | 51.9 µM (inactive)
Cc1cc(O)nc(NN2C(Cl)C(=O)C2c2ccccc2O)n1 (centres undefined) | 2.53 µM (inactive) | 0.547 µM (active) | 0.689 µM (active) | 8.39 µM (inactive) | 26.8 µM (inactive) | 2.48 µM (inactive) | 4.36 µM (inactive) | – | 0.726 µM (active) | – | 8.49 µM (inactive) | 2.66 µM (inactive) | 1.32 µM (inactive) | 4.94 µM (inactive) | 2.66 µM (inactive) | 2.7 µM (inactive) | 5.85 µM (inactive) | 2.76 µM (inactive) | 1.6 µM (inactive) | 1.44 µM (inactive)
Nc1nc(N)c(NC(=O)CCCO)c(=O)[nH]1 | > 100 µM (inactive) | > 100 µM (inactive) | – | > 100 µM (inactive) | > 100 µM (inactive) | > 100 µM (inactive) | > 100 µM (inactive) | > 100 µM (inactive) | > 100 µM (inactive) | 67.1 µM (inactive) | > 100 µM (inactive) | > 100 µM (inactive) | > 100 µM (inactive) | – | > 100 µM (inactive) | > 100 µM (inactive) | > 100 µM (inactive) | > 100 µM (inactive) | > 100 µM (inactive) | > 100 µM (inactive)
CCOC(=O)c1nnsc1NC(=O)Nc1ccc(Cl)cc1 | 21.1 µM (inactive) | > 100 µM (inactive) | – | 54.3 µM (inactive) | 30.1 µM (inactive) | – | 32.8 µM (inactive) | 75.5 µM (inactive) | 7 µM (inactive) | 15.8 µM (inactive) | 21.1 µM (inactive) | 18.5 µM (inactive) | 33 µM (inactive) | > 100 µM (inactive) | > 100 µM (inactive) | 35.2 µM (inactive) | > 100 µM (inactive) | > 100 µM (inactive) | 71 µM (inactive) | –
C[C@]12CCC(O)CC1=CC[C@@H]1[C@@H]2CC[C@]2(C)C(=O)[C@H](n3ccnc3)C[C@@H]12 (some centres undefined) | > 100 µM (inactive) | 22.1 µM (inactive) | 11.6 µM (inactive) | 28.2 µM (inactive) | > 100 µM (inactive) | 35.8 µM (inactive) | 57.4 µM (inactive) | > 100 µM (inactive) | 40.9 µM (inactive) | 33.5 µM (inactive) | 89.1 µM (inactive) | 37.4 µM (inactive) | 28.6 µM (inactive) | 79.4 µM (inactive) | 16.2 µM (inactive) | > 100 µM (inactive) | 79.1 µM (inactive) | 61.9 µM (inactive) | 47.5 µM (inactive) | –
CC(C)(C(=O)NN)c1ccccc1 | > 100 µM (inactive) | > 100 µM (inactive) | > 100 µM (inactive) | > 100 µM (inactive) | > 100 µM (inactive) | > 100 µM (inactive) | 42.4 µM (inactive) | > 100 µM (inactive) | 37.2 µM (inactive) | 56.2 µM (inactive) | – | > 100 µM (inactive) | > 100 µM (inactive) | > 100 µM (inactive) | > 100 µM (inactive) | > 100 µM (inactive) | > 100 µM (inactive) | > 100 µM (inactive) | 19.3 µM (inactive) | > 100 µM (inactive)
O=C1CC(=O)c2c(Cl)sc(Cl)c21 | > 100 µM (inactive) | 37.2 µM (inactive) | 30.3 µM (inactive) | > 100 µM (inactive) | 33.8 µM (inactive) | 45.5 µM (inactive) | > 100 µM (inactive) | 21.6 µM (inactive) | > 100 µM (inactive) | 23.8 µM (inactive) | 29.2 µM (inactive) | 52.2 µM (inactive) | – | 53.8 µM (inactive) | > 100 µM (inactive) | > 100 µM (inactive) | – | > 100 µM (inactive) | 92.3 µM (inactive) | > 100 µM (inactive)
O=C1C=C(NCCc2ccc(O)cc2)C(=O)C=C1NCCc1ccc(O)cc1 | > 100 µM (inactive) | 46.9 µM (inactive) | 19.2 µM (inactive) | > 100 µM (inactive) | 85.3 µM (inactive) | > 100 µM (inactive) | – | > 100 µM (inactive) | > 100 µM (inactive) | > 100 µM (inactive) | > 100 µM (inactive) | 48.8 µM (inactive) | > 100 µM (inactive) | > 100 µM (inactive) | > 100 µM (inactive) | > 100 µM (inactive) | > 100 µM (inactive) | 32.2 µM (inactive) | > 100 µM (inactive) | 54.3 µM (inactive)
CCOC(=O)c1[nH]cc(C)c1-c1ccn(-c2ccccc2)c1 | 53.2 µM (inactive) | 19.2 µM (inactive) | – | 29.6 µM (inactive) | 25.9 µM (inactive) | 61 µM (inactive) | 35.6 µM (inactive) | – | 38.6 µM (inactive) | 20.1 µM (inactive) | 41.9 µM (inactive) | 38.3 µM (inactive) | 30.6 µM (inactive) | 96.2 µM (inactive) | 21.7 µM (inactive) | 89.7 µM (inactive) | – | 49.4 µM (inactive) | 36.8 µM (inactive) | > 100 µM (inactive)
Cc1cc(OCc2nnc3n2N=C(c2cc(F)c(Cl)cc2Cl)/C(=C/c2ccc(-c4ccc(Cl)cc4)o2)S3)ccc1Cl | > 50 µM (inactive) | > 50 µM (inactive) | > 50 µM (inactive) | 21.3 µM (inactive) | > 50 µM (inactive) | 20.5 µM (inactive) | 21.5 µM (inactive) | 3.9 µM (inactive) | 29.5 µM (inactive) | 28.8 µM (inactive) | – | > 50 µM (inactive) | 14.6 µM (inactive) | 24.5 µM (inactive) | 46.5 µM (inactive) | 31.3 µM (inactive) | > 50 µM (inactive) | > 50 µM (inactive) | 18.2 µM (inactive) | –
COc1ccc(/N=N/c2ccc3oc(=O)c(C(=O)Nc4ccccc4C)cc3c2)cc1 | > 10 µM (inactive) | – | – | > 10 µM (inactive) | > 10 µM (inactive) | > 10 µM (inactive) | > 10 µM (inactive) | > 10 µM (inactive) | > 10 µM (inactive) | > 10 µM (inactive) | > 10 µM (inactive) | > 10 µM (inactive) | > 10 µM (inactive) | > 10 µM (inactive) | > 10 µM (inactive) | > 10 µM (inactive) | – | > 10 µM (inactive) | – | > 10 µM (inactive)
